Laboratory results from the supplement of paper PMC10307832.

Legend:
Assay in all cases: relative viability (nuclei count vs DMSO), 5 days (fraction); higher = more cells survive
[1] = test system: SW 1573
Outline: (§1)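 Nuclei were stained with Hoechst during a one-step fixation (final 0.05% Triton X-100, 1% formaldehyde, 1 ug/ml Hoechst) carried out 5 days after dosing, then counted on 4× images. The cells, lung cancer lines in 1536-well plates, had been dosed by pin tool the day after seeding with one drug alone or a fixed anchor-drug dose plus five library-drug doses (not always all listed) in √10 steps. Relative viability is the nuclei count in treated wells divided by that in vehicle wells, and each value is the median of duplicate plates.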

[2] = test system: NCI-H2009
Outline: as §1

[3] = test system: HOP-62
Outline: as §1

[4] = test system: NCI-H2170
Outline: as §1

[5] = test system: EMC-BAC-2
Outline: as §1

[6] = test system: PC-3 [JPC-3]
Outline: as §1

[7] = test system: A-427
Outline: as §1

[8] = test system: NCI-H727
Outline: as §1

[9] = test system: HARA
Outline: as §1

[10] = test system: NCI-H1993
Outline: as §1

[11] = test system: NCI-H322M
Outline: as §1

[12] = test system: NCI-H1792
Outline: as §1

[13] = test system: ABC-1
Outline: as §1

[14] = test system: NCI-H596
Outline: as §1

[15] = test system: NCI-H1944
Outline: as §1

[16] = test system: NCI-H2228
Outline: as §1

[17] = test system: NCI-H3122
Outline: as §1

[18] = test system: LK-2
Outline: as §1

[19] = test system: LXF-289
Outline: as §1

[20] = test system: SK-MES-1
Outline: as §1

Q: Which relative viability ([1]; first compound 0.08 µM) does the source give for `COc1nc(C)cnc1NS(=O)(=O)c1cccnc1-c1ccc(-c2nnco2)cc1` [Zibotentan] + CS(=O)(=O)N1CCN(Cc2cc3nc(-c4cccc5[nH]ncc45)nc(N4CCOCC4)c3s2)CC1 [Pictilisib] (partner 1 µM) here?
A: Its relative viability is 0.53.

Q: What about the relative viability ([1]; first compound 0.253 µM) of the same molecule?
A: The relative viability was 0.533.

Q: What about the relative viability ([1]; first compound 0.8 µM) of the same molecule?
A: Its relative viability is 0.557.

Q: What about the relative viability ([1]; first compound 2.53 µM) of the same molecule?
A: Its relative viability is 0.478.

Q: What about the relative viability ([2]; first compound 0.08 µM) of the same molecule?
A: The relative viability was 0.889.

Q: And the relative viability ([2]; first compound 0.253 µM)?
A: Its relative viability is 0.774.

Q: What about the relative viability ([2]; first compound 0.8 µM) of the same molecule?
A: The relative viability was 0.822.

Q: And the relative viability ([2]; first compound 2.53 µM)?
A: The relative viability was 0.886.

Q: What about the relative viability ([3]; first compound 0.08 µM) of the same molecule?
A: The relative viability was 0.687.

Q: What about the relative viability ([3]; first compound 0.253 µM) of the same molecule?
A: The relative viability was 0.769.

Q: And the relative viability ([3]; first compound 0.8 µM)?
A: The relative viability was 0.752.

Q: What about the relative viability ([3]; first compound 2.53 µM) of the same molecule?
A: Its relative viability is 0.851.

Q: And the relative viability ([4]; first compound 0.08 µM)?
A: Its relative viability is 0.282.

Q: What about the relative viability ([4]; first compound 0.253 µM) of the same molecule?
A: Its relative viability is 0.295.

Q: What about the relative viability ([4]; first compound 0.8 µM) of the same molecule?
A: The relative viability was 0.316.

Q: What about the relative viability ([4]; first compound 2.53 µM) of the same molecule?
A: The relative viability was 0.368.

Q: And the relative viability ([5]; first compound 0.08 µM)?
A: The relative viability was 0.568.

Q: What about the relative viability ([5]; first compound 0.253 µM) of the same molecule?
A: The relative viability was 0.529.

Q: What about the relative viability ([5]; first compound 0.8 µM) of the same molecule?
A: Its relative viability is 0.56.

Q: What about the relative viability ([5]; first compound 2.53 µM) of the same molecule?
A: Its relative viability is 0.56.

Q: What about the relative viability ([6]; first compound 0.08 µM) of the same molecule?
A: The relative viability was 0.756.

Q: And the relative viability ([6]; first compound 0.253 µM)?
A: The relative viability was 0.717.

Q: What about the relative viability ([6]; first compound 0.8 µM) of the same molecule?
A: Its relative viability is 0.647.

Q: What about the relative viability ([6]; first compound 2.53 µM) of the same molecule?
A: The relative viability was 0.781.

Q: And the relative viability ([7]; first compound 0.08 µM)?
A: The relative viability was 0.909.

Q: And the relative viability ([7]; first compound 0.253 µM)?
A: Its relative viability is 0.733.

Q: And the relative viability ([7]; first compound 0.8 µM)?
A: Its relative viability is 0.68.

Q: What about the relative viability ([7]; first compound 2.53 µM) of the same molecule?
A: The relative viability was 0.751.

Q: And the relative viability ([8]; first compound 0.08 µM)?
A: The relative viability was 0.567.

Q: And the relative viability ([8]; first compound 0.253 µM)?
A: Its relative viability is 0.38.

Q: What about the relative viability ([8]; first compound 0.8 µM) of the same molecule?
A: Its relative viability is 0.395.

Q: What about the relative viability ([8]; first compound 2.53 µM) of the same molecule?
A: Its relative viability is 0.483.

Q: And the relative viability ([9]; first compound 0.08 µM)?
A: The relative viability was 0.443.

Q: And the relative viability ([9]; first compound 0.253 µM)?
A: The relative viability was 0.438.

Q: What about the relative viability ([9]; first compound 0.8 µM) of the same molecule?
A: The relative viability was 0.351.

Q: And the relative viability ([9]; first compound 2.53 µM)?
A: Its relative viability is 0.57.

Q: What about the relative viability ([10]; first compound 0.253 µM) of the same molecule?
A: The relative viability was 0.736.

Q: And the relative viability ([10]; first compound 0.8 µM)?
A: The relative viability was 0.748.

Q: And the relative viability ([10]; first compound 2.53 µM)?
A: Its relative viability is 0.796.

Q: What about the relative viability ([11]; first compound 0.08 µM) of the same molecule?
A: Its relative viability is 0.521.

Q: And the relative viability ([11]; first compound 0.253 µM)?
A: Its relative viability is 0.559.

Q: And the relative viability ([11]; first compound 0.8 µM)?
A: Its relative viability is 0.533.

Q: What about the relative viability ([11]; first compound 2.53 µM) of the same molecule?
A: The relative viability was 0.506.

Q: And the relative viability ([12]; first compound 0.08 µM)?
A: The relative viability was 0.275.

Q: And the relative viability ([12]; first compound 0.253 µM)?
A: Its relative viability is 0.234.

Q: And the relative viability ([12]; first compound 0.8 µM)?
A: Its relative viability is 0.257.

Q: What about the relative viability ([12]; first compound 2.53 µM) of the same molecule?
A: The relative viability was 0.246.

Q: And the relative viability ([13]; first compound 0.08 µM)?
A: The relative viability was 0.686.

Q: And the relative viability ([13]; first compound 0.253 µM)?
A: Its relative viability is 0.623.

Q: And the relative viability ([13]; first compound 0.8 µM)?
A: The relative viability was 0.772.

Q: What about the relative viability ([13]; first compound 2.53 µM) of the same molecule?
A: The relative viability was 0.646.

Q: What about the relative viability ([14]; first compound 0.08 µM) of the same molecule?
A: The relative viability was 0.446.

Q: And the relative viability ([14]; first compound 0.253 µM)?
A: The relative viability was 0.417.

Q: And the relative viability ([14]; first compound 0.8 µM)?
A: The relative viability was 0.385.

Q: What about the relative viability ([14]; first compound 2.53 µM) of the same molecule?
A: Its relative viability is 0.428.

Q: And the relative viability ([15]; first compound 0.08 µM)?
A: The relative viability was 0.368.

Q: What about the relative viability ([15]; first compound 0.253 µM) of the same molecule?
A: The relative viability was 0.323.

Q: And the relative viability ([15]; first compound 0.8 µM)?
A: Its relative viability is 0.338.

Q: And the relative viability ([15]; first compound 2.53 µM)?
A: Its relative viability is 0.393.

Q: What about the relative viability ([16]; first compound 0.08 µM) of the same molecule?
A: The relative viability was 0.45.

Q: And the relative viability ([16]; first compound 0.253 µM)?
A: Its relative viability is 0.438.

Q: And the relative viability ([16]; first compound 0.8 µM)?
A: Its relative viability is 0.355.

Q: What about the relative viability ([16]; first compound 2.53 µM) of the same molecule?
A: Its relative viability is 0.317.

Q: And the relative viability ([17]; first compound 0.08 µM)?
A: Its relative viability is 0.568.

Q: What about the relative viability ([17]; first compound 0.253 µM) of the same molecule?
A: Its relative viability is 0.519.

Q: And the relative viability ([17]; first compound 0.8 µM)?
A: Its relative viability is 0.576.

Q: What about the relative viability ([17]; first compound 2.53 µM) of the same molecule?
A: The relative viability was 0.539.

Q: What about the relative viability ([18]; first compound 0.08 µM) of the same molecule?
A: The relative viability was 0.542.

Q: What about the relative viability ([18]; first compound 0.253 µM) of the same molecule?
A: Its relative viability is 0.471.

Q: And the relative viability ([18]; first compound 0.8 µM)?
A: The relative viability was 0.55.

Q: And the relative viability ([18]; first compound 2.53 µM)?
A: Its relative viability is 0.603.

Q: And the relative viability ([19]; first compound 0.08 µM)?
A: The relative viability was 0.774.

Q: What about the relative viability ([19]; first compound 0.253 µM) of the same molecule?
A: The relative viability was 0.739.

Q: And the relative viability ([19]; first compound 0.8 µM)?
A: The relative viability was 0.814.

Q: And the relative viability ([19]; first compound 2.53 µM)?
A: Its relative viability is 0.783.

Q: And the relative viability ([20]; first compound 0.08 µM)?
A: The relative viability was 0.344.

Q: And the relative viability ([20]; first compound 0.253 µM)?
A: The relative viability was 0.356.

Q: What about the relative viability ([20]; first compound 0.8 µM) of the same molecule?
A: The relative viability was 0.388.

Q: And the relative viability ([20]; first compound 2.53 µM)?
A: The relative viability was 0.428.
